Assay results published in patent US20140350273A1, “PEDIATRIC USES OF CABAZITAXEL” (AVENTIS PHARMA S.A., priority 2012, published 2014).
Read-outs that look alike come from different tables or passages of the source.

System: human rhabdomyosarcoma RH-30
Type: in vivo
Conditions: for Average body weight change in % per mouse at nadir / Drug death (Day of death) / Regressions Complete / Regressions Partial / Tumor free survivors at day 120 / day of nadir / Biological interpretation / ΔT/ΔC in % (day 27): 18
Method: This efficacy may be quantified, for example, as changes in tumor volume for each treated (T) and control (C) group, which are calculated for each animal and each day by subtracting the tumor volume on the day of first treatment (staging day) from the tumor volume on the specified observation day. This allows calculating the tumor growth inhibition: ΔT/ΔC=(median delta T/median delta C)×100. Individual tumor volume changes from baseline are thereafter analyzed by a non-parametric two-way ANOVA-TYPE (with factors: group and repeated days) followed by a post-hoc contrasts analysis, with Bonferroni-Holm adjustment for multiplicity, comparing all treated groups to the control group. […] A probability less than 5% (p<0.05) was considered as significant.
Based on the National Cancer Institute (NCl) standards, a ΔT/ΔC≦40% is the minimal level required to declare activity.
The tumor doubling time (in days; Td) was estimated from the plot of the log linear growth of the control group tumors in exponential growth (100 to 1000 mm^3 range) [T. H. Corbett et al., Cancer, 40: 2660-2680 (1977); F. M. Schabel et al., Cancer Drug Development, Part B, Methods in Cancer Research, 17: 3-51, New York, Academic Press Inc. (1979)].
This efficacy may also be quantified by the number of tumor regressions observed after therapy. Individual mice reporting a tumor volume ≦50% of the Day 0 measurement for two consecutive measurements over a seven day period were considered partial responders (PR). Individual mice lacking palpable tumors (<4×4 mm^2 for two consecutive measurements over a seven day period) were classified as complete responders (CR); a CR that persisted until study completion was considered a tumor-free survivor (TFS).
The animals subjected to the experiment are subcutaneously grafted unilaterally with approximately 30 mg of a tumor fragment on day 0. The animals are implanted with a human tumor xenografted in immunocompromized mice. Several days post tumor implantation, mice are randomized according to their body weight to the different groups of treatments and controls. The animals are observed every day. […] The groups are then weighed once or twice a week until the end of the trial.
The tumors are measured 1 to 5 times a week, depending on the tumor doubling time, until the tumor reaches approximately 1,000 mm^3, or until the animal dies (if this occurs before the tumor reaches 1,000 mm^3). The animals are necropsied immediately after euthanasia or death.
The selected tumor model was a human rhabdomyosarcoma RH-30, xenografted in SCID mice [Douglass E C, et al. Cytogenet Cell Genet. 1987; 45(3-4):14855.].
Treatment solutions were prepared first by mixing 1 volume of ethanolic stock solution and 1 volume of polysorbate 80, then by adding 18 volumes of glucose 5% in water.

[1] = 3.5 mg/kg per injection (total 7.0) IV days 14
[2] = 3.5 mg/kg per injection (total 7.0) IV days 14, listed as DOCETAXEL
[3] = 3.5 mg/kg per injection (total 7.0) IV days 14, listed as docetaxel
[4] = 5.6 mg/kg per injection (total 11.2) IV days 14
[5] = 5.6 mg/kg per injection (total 11.2) IV days 14, listed as DOCETAXEL
[6] = 9.0 mg/kg per injection (total 18) IV days 14
[7] = 9.0 mg/kg per injection (total 18) IV days 14, listed as DOCETAXEL
[8] = 14.5 mg/kg per injection (total 29) IV days 14
[9] = 14.5 mg/kg per injection (total 29) IV days 14, listed as DOCETAXEL
[10] = 14.5 mg/kg per injection (total 29) IV days 14, listed as docetaxel

Structure (SMILES): CC(=O)O[C@@]12CO[C@@H]1C[C@H](O)[C@@]1(C)C(=O)[C@H](O)C3=C(C)[C@@H](OC(=O)[C@H](O)[C@@H](NC(=O)OC(C)(C)C)c4ccccc4)C[C@@](O)([C@@H](OC(=O)c4ccccc4)[C@H]21)C3(C)C [Docetaxel, docetaxel]
- Average body weight change in % per mouse at nadir [1]: −1.8%
- Drug death (Day of death) [1]: 0/6
- Regressions Complete [1]: 0/6
- Regressions Partial [1]: 0/6
- Tumor free survivors at day 120 [1]: 0/6
- day of nadir [1]: (15) day
- Biological interpretation [2]: Inactive
- ΔT/ΔC in % (day 27) [2]: 77%
- Biological interpretation [3]: inactive
- ΔT/ΔC in % (day 27) [3]: > 40%
- Tumor volume changes from baseline: Median (nMad) (3.5 mg/kg, day 19): 477
- Tumor volume changes from baseline: Median (nMad) (3.5 mg/kg, day 20): 475
- Tumor volume changes from baseline: Median (nMad) (3.5 mg/kg, day 22): 495.5
- Tumor volume changes from baseline: Median (nMad) (3.5 mg/kg, day 25): 621.5
- Tumor volume changes from baseline: Median (nMad) (3.5 mg/kg, day 27): 736
- Tumor volume changes from baseline: Median (nMad) (3.5 mg/kg, day 29): 905.5
- Average body weight change in % per mouse at nadir [4]: −12.1%
- Drug death (Day of death) [4]: 0/6
- Regressions Complete [4]: 0/6
- Regressions Partial [4]: 4/6
- Tumor free survivors at day 120 [4]: 0/6
- day of nadir [4]: (25) day
- Biological interpretation [5]: Highly
- ΔT/ΔC in % (day 27) [5]: <0%
- Biological interpretation (5.6 mg/kg per injection (total 11.2) IV days 14, listed as docetaxel): highly active
- Tumor volume changes from baseline: Median (nMad) (5.6 mg/kg, day 18): 218 (84.5)
- Tumor volume changes from baseline: Median (nMad) (5.6 mg/kg, day 19): 289 (57.1)
- Tumor volume changes from baseline: Median (nMad) (5.6 mg/kg, day 20): 409.5
- Tumor volume changes from baseline: Median (nMad) (5.6 mg/kg, day 22): 405.5
- Tumor volume changes from baseline: Median (nMad) (5.6 mg/kg, day 25): −30.5
- Tumor volume changes from baseline: Median (nMad) (5.6 mg/kg, day 29): −47 (89.7)
- Tumor volume changes from baseline: Median (nMad) (5.6 mg/kg, day 33): 67 (262.4)
- Tumor volume changes from baseline: Median (nMad) (5.6 mg/kg, day 39): 454.5
- Tumor volume changes from baseline: Median (nMad) (5.6 mg/kg, day 41): 712
- Tumor volume changes from baseline: Median (nMad) (5.6 mg/kg, day 43): 1039.5
- Tumor volume changes from baseline: Median (nMad) (5.6 mg/kg, day 35): 129
- Average body weight change in % per mouse at nadir [6]: −11.2%
- Drug death (Day of death) [6]: 0/6
- Regressions Complete [6]: 0/6
- Regressions Partial [6]: 2/6
- Tumor free survivors at day 120 [6]: 0/6
- day of nadir [6]: (25) day
- Biological interpretation [7]: Highly
- ΔT/ΔC in % (day 27) [7]: <0%
- Biological interpretation (9.0 mg/kg per injection (total 18) IV days 14, listed as docetaxel): highly active
- Tumor volume changes from baseline: Median (nMad) (9 mg/kg, day 18): 202 (98.6)
- Tumor volume changes from baseline: Median (nMad) (9 mg/kg, day 19): 202 (71.9)
- Tumor volume changes from baseline: Median (nMad) (9 mg/kg, day 20): 325
- Tumor volume changes from baseline: Median (nMad) (9 mg/kg, day 22): 290.5
- Tumor volume changes from baseline: Median (nMad) (9 mg/kg, day 25): 115.5
- Tumor volume changes from baseline: Median (nMad) (9 mg/kg, day 29): 119.5
- Tumor volume changes from baseline: Median (nMad) (9 mg/kg, day 33): 272
- Tumor volume changes from baseline: Median (nMad) (9 mg/kg, day 39): 676
- Tumor volume changes from baseline: Median (nMad) (9 mg/kg, day 41): 904.5
- Tumor volume changes from baseline: Median (nMad) (9 mg/kg, day 43): 909
- Average body weight change in % per mouse at nadir [8]: −17.6%
- Drug death (Day of death) [8]: 0/6
- Regressions Complete [8]: 3/6
- Regressions Partial [8]: 5/6
- day of nadir [8]: (27) day
- ΔT/ΔC in % (day 27) [8]: 1%
- Biological interpretation [9]: Very
- Tumor free survivors at day 120 [9]: 0/6
- Biological interpretation [10]: very active
- Tumor free survivors at day 120 [10]: without TFS
- Tumor volume changes from baseline: Median (nMad) (14.5 mg/kg, day 18): 166.5
- Tumor volume changes from baseline: Median (nMad) (14.5 mg/kg, day 19): 195 (83)
- Tumor volume changes from baseline: Median (nMad) (14.5 mg/kg, day 25): 154.5
- Tumor volume changes from baseline: Median (nMad) (14.5 mg/kg, day 27): 13 (67.5)
- Tumor volume changes from baseline: Median (nMad) (14.5 mg/kg, day 29): 87 (100.8)
- Tumor volume changes from baseline: Median (nMad) (14.5 mg/kg, day 33): 17 (111.2)
- Tumor volume changes from baseline: Median (nMad) (14.5 mg/kg, day 46): 18.5
- Tumor volume changes from baseline: Median (nMad) (14.5 mg/kg, day 50): 485
- Tumor volume changes from baseline: Median (nMad) (14.5 mg/kg, day 35): −80 (63.8)
- Tumor volume changes from baseline: Median (nMad) (14.5 mg/kg, day 39): −112
- Tumor volume changes from baseline: Median (nMad) (14.5 mg/kg, day 41): −96 (78.6)
- Tumor volume changes from baseline: Median (nMad) (14.5 mg/kg, day 43): −72.5
